Results as given in article PMC5448077, “Development of an orally available inhibitor of CLK1 for skipping a mutated dystrophin exon in Duchenne muscular dystrophy” (Scientific Reports, 2017).

How the values were obtained:
Assay in all cases: biochemical
[1] = biological target: NEK7 (Homo sapiens, UniProt Q8TDX7)
Experimental: (§1) These assays rely on the phosphorylation of small synthetic peptides developed for each kinase, and detect activity by changes in electrophoretic mobility (MSA assay) or by binding of a fluorescently labelled peptide to a large micro-particle and concomitant polarization increases (IMAP assay). Reaction conditions for each kinase are described in Supplementary Table S5. All kinase assays were carried out at Carna Biosciences (Kobe, Japan). The inhibitory map was constructed using Kinome Render[41]. Inhibitor (4×), substrate/ATP-Metal (4×), and kinase (2×) solutions were prepared with assay buffer (20 mM HEPES, 0.01% Triton X-100, 2 mM DTT, pH 7.5) and mixed in 384-well plates at room temperature for 1 or 5 h depending on the kinase. Reactions were stopped by the addition of termination buffer (QuickScout Screening Assist MSA; Carna Biosciences). The entire reaction mixture was then applied to a LabChip system (Perkin-Elmer, Waltham, MA, USA) and the product and substrate peptide peaks were separated and quantified, and then heights of product (P) and substrate (S) peptide peaks were calculated. The level of kinase activity was evaluated with the following equation: activity = P/(P + S).

[2] = biological target: AXL (Homo sapiens, UniProt P30530)
Experimental: as §1

[3] = biological target: T1, HGK (Homo sapiens, UniProt O95819)
T1 construct: gene MAP4K4
Experimental: as §1

[4] = biological target: DYRK1B (Homo sapiens, UniProt Q9Y463)
Experimental: as §1

[5] = biological target: DDR1 (Homo sapiens, UniProt Q08345)
Sequence of DDR1 (Q08345 whole entry): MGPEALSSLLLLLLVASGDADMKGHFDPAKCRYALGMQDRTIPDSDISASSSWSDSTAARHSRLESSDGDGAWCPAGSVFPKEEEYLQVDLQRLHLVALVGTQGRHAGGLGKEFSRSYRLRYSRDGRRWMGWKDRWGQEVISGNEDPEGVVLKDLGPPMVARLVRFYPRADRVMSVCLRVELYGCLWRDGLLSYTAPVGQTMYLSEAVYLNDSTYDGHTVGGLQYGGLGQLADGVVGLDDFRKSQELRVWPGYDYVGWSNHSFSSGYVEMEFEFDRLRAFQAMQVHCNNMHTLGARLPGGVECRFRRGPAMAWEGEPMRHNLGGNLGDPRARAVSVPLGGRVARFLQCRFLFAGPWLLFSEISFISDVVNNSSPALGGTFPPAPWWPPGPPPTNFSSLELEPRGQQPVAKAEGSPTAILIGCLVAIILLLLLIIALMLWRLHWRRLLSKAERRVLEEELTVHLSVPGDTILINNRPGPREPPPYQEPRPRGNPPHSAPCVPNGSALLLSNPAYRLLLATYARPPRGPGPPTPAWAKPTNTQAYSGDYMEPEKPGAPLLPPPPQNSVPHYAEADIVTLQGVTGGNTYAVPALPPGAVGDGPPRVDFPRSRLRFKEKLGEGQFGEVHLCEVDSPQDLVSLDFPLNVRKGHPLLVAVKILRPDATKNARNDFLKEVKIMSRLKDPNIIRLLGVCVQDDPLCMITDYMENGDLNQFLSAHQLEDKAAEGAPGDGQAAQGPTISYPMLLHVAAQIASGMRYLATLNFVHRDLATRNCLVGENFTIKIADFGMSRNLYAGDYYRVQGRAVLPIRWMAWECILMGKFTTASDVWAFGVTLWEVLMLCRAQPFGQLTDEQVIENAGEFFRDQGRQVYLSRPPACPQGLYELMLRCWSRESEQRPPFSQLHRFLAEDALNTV
Experimental: as §1

[6] = biological target: T2, RSK2 (Homo sapiens, UniProt P51812)
T2 construct: gene RPS6KA3
T2 sequence (P51812 whole entry): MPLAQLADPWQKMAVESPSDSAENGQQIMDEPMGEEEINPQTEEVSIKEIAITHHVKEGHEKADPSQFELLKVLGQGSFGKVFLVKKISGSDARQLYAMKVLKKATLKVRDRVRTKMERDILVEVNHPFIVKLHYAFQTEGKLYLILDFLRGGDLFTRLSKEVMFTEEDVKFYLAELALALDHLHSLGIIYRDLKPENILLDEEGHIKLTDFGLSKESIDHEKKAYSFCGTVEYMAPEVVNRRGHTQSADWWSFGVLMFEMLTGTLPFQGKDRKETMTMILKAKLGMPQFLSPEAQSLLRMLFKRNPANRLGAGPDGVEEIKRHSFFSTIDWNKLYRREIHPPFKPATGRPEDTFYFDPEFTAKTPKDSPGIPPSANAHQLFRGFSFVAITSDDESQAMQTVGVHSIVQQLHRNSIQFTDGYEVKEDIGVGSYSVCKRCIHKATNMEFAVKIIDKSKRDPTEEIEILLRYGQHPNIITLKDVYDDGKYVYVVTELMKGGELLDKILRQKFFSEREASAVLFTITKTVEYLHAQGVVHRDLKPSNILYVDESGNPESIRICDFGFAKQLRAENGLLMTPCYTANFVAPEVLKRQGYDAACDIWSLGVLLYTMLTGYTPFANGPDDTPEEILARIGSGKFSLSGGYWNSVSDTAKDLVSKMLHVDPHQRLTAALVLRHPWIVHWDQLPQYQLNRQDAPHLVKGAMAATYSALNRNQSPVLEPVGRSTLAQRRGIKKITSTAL
Experimental: as §1

[7] = biological target: DYRK1A (Homo sapiens, UniProt Q13627)
Experimental: as §1

[8] = biological target: T3, BRK (Homo sapiens, UniProt Q13882)
T3 construct: gene PTK6
T3 sequence (Q13882 whole entry): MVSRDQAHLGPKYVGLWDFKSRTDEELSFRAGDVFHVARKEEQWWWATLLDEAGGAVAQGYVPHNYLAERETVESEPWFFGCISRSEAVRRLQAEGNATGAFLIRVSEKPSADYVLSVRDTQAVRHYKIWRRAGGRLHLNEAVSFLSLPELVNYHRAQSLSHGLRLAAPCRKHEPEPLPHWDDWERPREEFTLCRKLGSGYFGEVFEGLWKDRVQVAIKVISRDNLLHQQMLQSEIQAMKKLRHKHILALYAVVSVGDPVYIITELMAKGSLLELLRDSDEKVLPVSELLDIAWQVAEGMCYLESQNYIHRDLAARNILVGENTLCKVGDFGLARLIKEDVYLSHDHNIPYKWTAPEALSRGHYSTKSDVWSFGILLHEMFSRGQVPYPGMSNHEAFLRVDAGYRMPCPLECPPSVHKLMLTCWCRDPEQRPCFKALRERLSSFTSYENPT
Experimental: as §1

[9] = biological target: TYRO3 (Homo sapiens, UniProt Q06418)
Experimental: as §1

[10] = biological target: T4, IKKα (Homo sapiens, UniProt O15111)
T4 construct: gene CHUK
Experimental: as §1

[11] = biological target: MET(M1250T) (Homo sapiens, UniProt P08581, M1250T)
Experimental: as §1

[12] = biological target: NEK1 (Homo sapiens, UniProt Q96PY6)
Experimental: as §1

[13] = biological target: PIM3 (Homo sapiens, UniProt Q86V86)
Experimental: as §1

[14] = biological target: T5, JNK1 (Homo sapiens, UniProt P45983)
T5 construct: gene MAPK8
T5 sequence (P45983 whole entry): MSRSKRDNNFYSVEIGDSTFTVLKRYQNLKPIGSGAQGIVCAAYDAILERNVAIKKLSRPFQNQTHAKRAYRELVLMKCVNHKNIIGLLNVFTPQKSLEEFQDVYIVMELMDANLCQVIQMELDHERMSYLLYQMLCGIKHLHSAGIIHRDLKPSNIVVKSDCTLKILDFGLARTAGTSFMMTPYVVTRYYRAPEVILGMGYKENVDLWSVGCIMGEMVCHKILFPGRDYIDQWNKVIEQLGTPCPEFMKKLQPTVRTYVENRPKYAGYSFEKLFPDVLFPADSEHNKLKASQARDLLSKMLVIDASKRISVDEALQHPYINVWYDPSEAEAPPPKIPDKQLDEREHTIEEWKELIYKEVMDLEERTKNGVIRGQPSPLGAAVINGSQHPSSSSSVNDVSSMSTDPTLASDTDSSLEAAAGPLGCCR
Experimental: as §1

[15] = biological target: EPHB3 (Homo sapiens, UniProt P54753)
Experimental: as §1

[16] = biological target: PBK (Homo sapiens, UniProt Q96KB5)
Experimental: as §1

[17] = biological target: T6, FYN(isoform b) (Homo sapiens, UniProt P06241)
T6 construct: isoform b
T6 sequence (P06241 whole entry, canonical isoform): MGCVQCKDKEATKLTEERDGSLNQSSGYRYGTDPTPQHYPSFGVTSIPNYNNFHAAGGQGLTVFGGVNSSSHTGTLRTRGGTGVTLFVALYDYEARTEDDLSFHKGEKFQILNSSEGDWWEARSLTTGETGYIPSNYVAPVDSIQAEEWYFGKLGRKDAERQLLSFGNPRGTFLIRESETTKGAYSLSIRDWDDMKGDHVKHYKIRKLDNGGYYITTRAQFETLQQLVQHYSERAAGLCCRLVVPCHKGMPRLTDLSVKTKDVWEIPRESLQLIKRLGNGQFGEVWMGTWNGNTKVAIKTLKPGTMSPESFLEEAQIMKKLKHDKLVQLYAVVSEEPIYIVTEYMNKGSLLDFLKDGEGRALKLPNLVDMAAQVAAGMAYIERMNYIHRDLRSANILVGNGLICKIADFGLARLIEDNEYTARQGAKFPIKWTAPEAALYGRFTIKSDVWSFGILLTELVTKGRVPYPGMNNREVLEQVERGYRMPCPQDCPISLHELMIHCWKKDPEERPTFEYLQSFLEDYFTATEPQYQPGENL
Experimental: as §1

[18] = biological target: DYRK2 (Homo sapiens, UniProt Q92630)
Experimental: as §1

[19] = biological target: T7, TRKC (Homo sapiens, UniProt Q16288)
T7 construct: gene NTRK3
Experimental: as §1

[20] = biological target: FGFR4(V550E) (Homo sapiens, UniProt P22455, V550E)
Experimental: as §1

[21] = biological target: T8, RON (Homo sapiens, UniProt Q04912)
T8 construct: gene MST1R
Experimental: as §1

[22] = biological target: T9, CK1ε (Homo sapiens, UniProt P49674)
T9 construct: gene CSNK1E
Experimental: as §1

[23] = biological target: FGFR4 (Homo sapiens, UniProt P22455)
Experimental: as §1

[24] = biological target: EGFR(T790M/L858R) (Homo sapiens, UniProt P00533, L858R/T790M)
Sequence of EGFR(T790M/L858R) (P00533 whole entry T790M/L858R): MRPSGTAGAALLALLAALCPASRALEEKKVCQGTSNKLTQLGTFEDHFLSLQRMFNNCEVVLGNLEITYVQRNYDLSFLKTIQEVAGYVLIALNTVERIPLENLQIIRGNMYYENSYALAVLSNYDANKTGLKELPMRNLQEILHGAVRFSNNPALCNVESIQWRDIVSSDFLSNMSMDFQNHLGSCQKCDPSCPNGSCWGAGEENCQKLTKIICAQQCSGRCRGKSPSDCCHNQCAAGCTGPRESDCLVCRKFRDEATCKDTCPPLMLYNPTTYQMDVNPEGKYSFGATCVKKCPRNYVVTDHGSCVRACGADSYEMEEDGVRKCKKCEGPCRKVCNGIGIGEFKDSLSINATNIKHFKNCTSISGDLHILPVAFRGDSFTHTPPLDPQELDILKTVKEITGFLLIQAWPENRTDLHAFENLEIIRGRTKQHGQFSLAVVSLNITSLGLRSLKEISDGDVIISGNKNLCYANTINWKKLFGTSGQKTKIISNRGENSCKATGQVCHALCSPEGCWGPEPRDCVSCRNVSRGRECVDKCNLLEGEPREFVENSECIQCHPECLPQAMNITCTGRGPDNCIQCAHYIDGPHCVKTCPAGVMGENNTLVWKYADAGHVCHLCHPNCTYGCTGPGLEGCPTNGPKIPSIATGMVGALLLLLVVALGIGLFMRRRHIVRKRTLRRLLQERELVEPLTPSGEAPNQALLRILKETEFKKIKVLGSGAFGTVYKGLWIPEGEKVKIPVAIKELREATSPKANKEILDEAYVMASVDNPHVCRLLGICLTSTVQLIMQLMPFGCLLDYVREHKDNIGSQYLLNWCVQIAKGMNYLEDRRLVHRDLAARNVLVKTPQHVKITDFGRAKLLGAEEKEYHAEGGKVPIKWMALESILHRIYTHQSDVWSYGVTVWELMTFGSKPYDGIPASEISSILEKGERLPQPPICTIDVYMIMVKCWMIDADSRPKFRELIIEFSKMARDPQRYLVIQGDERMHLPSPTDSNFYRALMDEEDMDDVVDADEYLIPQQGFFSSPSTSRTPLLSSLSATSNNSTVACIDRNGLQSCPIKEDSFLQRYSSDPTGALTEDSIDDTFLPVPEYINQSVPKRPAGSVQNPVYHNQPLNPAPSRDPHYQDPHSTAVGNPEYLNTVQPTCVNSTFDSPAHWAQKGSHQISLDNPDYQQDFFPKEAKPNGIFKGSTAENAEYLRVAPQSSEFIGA
Experimental: as §1

[25] = biological target: ROCK1 (Homo sapiens, UniProt Q13464)
Experimental: as §1

[26] = biological target: T10, SGK (Homo sapiens, UniProt O00141)
T10 construct: gene SGK1
Experimental: as §1

[27] = biological target: FGR (Homo sapiens, UniProt P09769)
Experimental: as §1

[28] = biological target: T11, NDR1 (Homo sapiens, UniProt Q15208)
T11 construct: gene STK38
Experimental: as §1

[29] = biological target: T12, MST2 (Homo sapiens, UniProt Q13188)
T12 construct: gene STK3
Experimental: as §1

[30] = biological target: T13, FMS (Homo sapiens, UniProt P07333)
T13 construct: gene CSF1R
Experimental: as §1

[31] = biological target: ALK(F1174L) (Homo sapiens, UniProt Q9UM73, F1174L)
Experimental: as §1

Sequence of NEK7 (Q8TDX7 whole entry): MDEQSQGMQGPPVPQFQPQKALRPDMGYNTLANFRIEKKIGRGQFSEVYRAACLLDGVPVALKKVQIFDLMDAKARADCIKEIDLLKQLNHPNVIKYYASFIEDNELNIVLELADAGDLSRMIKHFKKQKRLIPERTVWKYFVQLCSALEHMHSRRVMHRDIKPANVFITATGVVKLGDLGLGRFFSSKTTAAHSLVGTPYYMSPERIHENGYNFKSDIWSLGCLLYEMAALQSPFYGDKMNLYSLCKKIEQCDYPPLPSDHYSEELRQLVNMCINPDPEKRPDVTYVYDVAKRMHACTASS

## c1cc(-c2ccc3[nH]ncc3c2)ccn1 [TG693, 5-(4-pyridinyl)-1H-indazole]
[1]
  inhibition at 1 µM: -9%
[2]
  inhibition at 1 µM: 3.5%
[3]
  inhibition at 1 µM: 66.5%
[4]
  inhibition at 1 µM: 76.1%
[5]
  inhibition at 1 µM: -6%
[6]
  inhibition at 1 µM: 2.1%
[7]
  inhibition at 1 µM: 84.3%
[8]
  inhibition at 1 µM: 5.2%
[9]
  inhibition at 1 µM: 0.3%
[10]
  inhibition at 1 µM: 14.6%
[11]
  inhibition at 1 µM: -0.8%
[12]
  inhibition at 1 µM: -1.5%
[13]
  inhibition at 1 µM: 6.6%
[14]
  inhibition at 1 µM: -18%
[15]
  inhibition at 1 µM: -0.5%
[16]
  inhibition at 1 µM: -3.5%
[17]
  inhibition at 1 µM: 0.6%
[18]
  inhibition at 1 µM: 77.2%
[19]
  inhibition at 1 µM: 7.7%
[20]
  inhibition at 1 µM: -4.1%
[21]
  inhibition at 1 µM: 1.1%
[22]
  inhibition at 1 µM: 8%
[23]
  inhibition at 1 µM: 4.3%
[24]
  inhibition at 1 µM: 1.3%
[25]
  inhibition at 1 µM: 27.6%
[26]
  inhibition at 1 µM: 5.6%
[27]
  inhibition at 1 µM: -5.9%
[28]
  inhibition at 1 µM: 11.5%
[29]
  inhibition at 1 µM: 0.5%
[30]
  inhibition at 1 µM: 2.6%
[31]
  inhibition at 1 µM: -6.9%
